This passage reports IC50 results from BindingDB's records for doi:10.1016/s0960-894x(02)00061-6 (Lek, 2002).

Each structure is given as a SMILES string.

This assay has as its target Beta-lactamase TEM (Escherichia coli, UniProt P62593). Nature of the assay: ChEBML_47839. How it is done:
The compound was tested for its inhibitory activity towards Class A TEM-1 beta-lactamase from Escherichia coli at 0.3 umol

Sequence of Beta-lactamase TEM (P62593 whole entry): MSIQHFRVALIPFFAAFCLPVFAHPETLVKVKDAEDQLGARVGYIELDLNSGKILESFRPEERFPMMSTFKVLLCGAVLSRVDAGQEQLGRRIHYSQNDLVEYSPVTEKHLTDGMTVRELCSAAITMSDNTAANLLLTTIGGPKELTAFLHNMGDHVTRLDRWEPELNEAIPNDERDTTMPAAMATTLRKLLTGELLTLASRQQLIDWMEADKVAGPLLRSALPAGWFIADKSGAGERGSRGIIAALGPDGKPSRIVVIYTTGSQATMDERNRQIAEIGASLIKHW

`C/C=C1/C(=O)N2C(C(=O)O)=C3CCCCC3[C@H]12` (stereo partly drawn) [Sodium; (R)-1-eth-(E)-ylidene-2-oxo-1,2,5,6,7,8,8a,8b-octahydro-azeto[2,1-a]isoindole-4-carboxylate]: inhibition was half-maximal at 120 µM (IC50).
